Test [1] has as its system model of atopic dermatitis in mice. As to the kind of experiment: Response index in DNCB-induced atopic (allopathic) dermatitis in mice. Type of test: in vivo, male Balb/c mice. As to conditions: n = 12. How it is done: The model of allopathic dermatitis was realized by a standard method [Mechanism of dinitrochlorobenzene-induced dermatitis in mice: role of specific antibodies in pathogenesis//PLoS One. 2009; 4(11)].
On days 0 and 12 of the study, 100 μL of a 2% solution of 1-chloro-2,4-dinitrobenzene (DNCB, Sigma-Aldrich, US) in 95% ethanol was applied to shaved sites in the backs of male Balb/c mice. On day 17 of the study, to the right “studied” ear of the animals, 20 μL of the alcohol solution of 2% DNCB was applied two times with a one-hour interval. The studied compound and the reference preparation, dexamethasone, were administered by the intragastric route once daily on days 8-17 of the study.
On day 18 of the study, the animals were euthanized in a CO2 camera. The weights of the “studied” and “control” ears were measured. A response index (RI) expressed in percentage of a difference in the weights of the “studied” and “control” ears was calculated.

Test [2] has as its system model of allergic rhinitis in guinea pigs. As to the kind of experiment: Clinical manifestations of allergic rhinitis in guinea pigs (sneezes, nose scratchings). Type of test: in vivo, guinea pig. As to conditions: 14 mg/kg intragastric, 3 times; 2 hours after last ovalbumin; n = 8. How it is done:
The model of allergic rhinitis in guinea pigs was realized by a standard method [Vishnu N. Thakare, M. M. Osama, Suresh R. Naik. […] 2013 September; 17(1):18-25].
Guinea pigs (250-300 g) were immunized with 4-time (on days 0, 7, 14, and 21) intragastric administration of ovalbumin (100 μg/pig) and aluminium hydroxide (5 mg/pig), both of which were diluted and suspended in a physiological saline solution. […], a solution of ovalbumin (60 mg/mL) was administered intranasally to each nostril of the animals at a dose 20 μL. On day 35, the animals received subcutaneously an ovalbumin solution (200 μg/mL, 25 μL); the animal back was previously shaved in the site of administration. Swelling and redness at the injection site served as a support of sensibilisation. On day 42 of the study, an ovalbumin solution (60 mg/mL, 20 μL/nostril) was administered intranasally. A group of pseudoimmunized animals was formed to control the formation of exactly allergic inflammation: on days 0, 7, 14, and 21, the pigs received a solution of aluminium hydroxide (5 mg/pig), and on days 28 and 35, they received a physiological saline solution, and on day 42, a solution of ovalbumin (60 mg/mL, 20 μL/nostril).
The studied compounds (14 mg/kg) were administered 3 times by the intragastric route: 48, 24, and 1 hour before the last administration of ovalbumin. The reference preparation, dexamethasone, was administered one time by the intragastric route, 3 hours before the last intranasal administration of ovalbumin.
Clinical manifestations, such as the number of sneezes and nose scratchings, were registered for 2 hours after the last administration of ovalbumin. Nasal lavage was taken 24 hours after the last administration of ovalbumin, and in this lavage, the total lymphocyte count and leukocyte formula were determined. The number of guinea pigs in a group was 8.

For test [3], the system named is model of leukotriene-induced eosinophilic lung inflammation in guinea pigs. As to the kind of experiment: Content of cell elements in BAL in the model of leukotriene-induced eosinophilic lung inflammation in guinea pigs. Type of test: in vivo, guinea pig. The following applies: four times, BAL 48 hours after LTD4, n = 8. From the text: The model of leukotriene-induced eosinophilic lung inflammation in guinea pigs was realized by a standard method [Underwood DC1, Osborn R R, Newsholme S J, Torphy T J, Hay D W. Persistent airway eosinophilia after leukotriene (LT) D4 administration in the guinea pig: modulation by the LTD4 receptor antagonist, pranlukast, or an interleukin-5 monoclonal antibody// Am J Respir Crit Care Med. 1996 October; 154(4 Pt 1):850-7]. A solution of leukotriene D4 (LTD4, Cayman Chemical, USA) at a concentration of […] (a flow rate of 250 mL/hr) was inhaled to male guinea pigs (250-300 g) under conditions of a double-chamber plethysmograph (Emka Technologies, France) for one minute. The studied compound was administered to the animals by the intragastric route four times: 24 hours and 1 hour before and 24 hours and 45 hours after the inhalation of LTD4. The reference preparation, montelukast (0.8 mg/kg), was administered one time by the intragastric route one hour before the inhalation of LTD4. Bronchoalveolar lavage was taken 48 hours after the inhalation of LTD4, and the total lymphocyte count and leukocyte formula were determined in the lavage. The number of guinea pigs in a group was 8.

On to `O=C1CCCC(=O)N1CCc1cnc[nH]1` [Compound 1, 1-(2-(1H-imidazol-4-yl)ethyl)piperidine-2,6-dione], for which the “Response index (%)” value in test [1] (0.3 mg/kg intragastric once daily on days 8-17) was 74.4 ± 7.3*& %. The “Response index (%)” value in test [1] (3 mg/kg intragastric once daily on days 8-17) is 69.5 ± 8.2*& %. Moreover, in test [1] (30 mg/kg intragastric once daily on days 8-17), the “Response index (%)” value was 69.1 ± 8*& %. For the same molecule, in test [2], the “Number of nose scratchings/2 hours” value is given as 13.9 ± 2.6 & and the “Number of sneezes/2 hours” value is 5.9 ± 1.1 &. Besides, in test [3] (0.14 mg/kg intragastric), the “Eosinophils, content of cell elements in 1 μL of BAL” value (from here on “Eosinophils, content”) is given as 916 ± 144*& in 1 μL of BAL; the “Leukocytes, content of cell elements in 1 μL of BAL” value (“Leukocytes, content” for short) is recorded as 2638 ± 463*& in 1 μL of BAL; the “Lymphocytes, content of cell elements in 1 μL of BAL” value (“Lymphocytes, content” below) is 112 ± 27 in 1 μL of BAL; the “Macrophages, content of cell elements in 1 μL of BAL” value (“Macrophages, content” below) is 1360 ± 323 in 1 μL of BAL. Further, the “Neutrophils, content of cell elements in 1 μL of BAL” value (“Neutrophils, content” below) in test [3] (0.14 mg/kg intragastric) was 249 ± 50 in 1 μL of BAL. Also, in test [3] (1.4 mg/kg intragastric), the “Eosinophils, content” value was 856 ± 288*& in 1 μL of BAL; the “Leukocytes, content” value is recorded as 3413 ± 1022 in 1 μL of BAL; the “Lymphocytes, content” value is recorded as 144 ± 89 in 1 μL of BAL; the “Macrophages, content” value is recorded as 2134 ± 705 in 1 μL of BAL. Further, the “Neutrophils, content” value in test [3] (1.4 mg/kg intragastric) was 279 ± 97 in 1 μL of BAL. In test [3] (14 mg/kg intragastric), the “Eosinophils, content” value is recorded as 580 ± 124*& in 1 μL of BAL; the “Leukocytes, content” value was 2250 ± 373*& in 1 μL of BAL; the “Lymphocytes, content” value is given as 71 ± 28 in 1 μL of BAL; the “Macrophages, content” value is reported as 1444 ± 258 in 1 μL of BAL. In addition, in test [3] (14 mg/kg intragastric), the “Neutrophils, content” value is 155 ± 36 in 1 μL of BAL.
